Molecules are shown by their SMILES. The source made the active and inactive calls. The calls are words filed in the database; no cut-off is given here.

For orientation: IC50 means the concentration at which inhibition is half-maximal. By inhibition is commonly meant the change of the read-out against control, counted positive when it falls.

Assay [1] deals with T1, Vasoactive intestinal polypeptide receptor 2 (Homo sapiens, UniProt P41587).
T1 sequence (P41587 whole entry): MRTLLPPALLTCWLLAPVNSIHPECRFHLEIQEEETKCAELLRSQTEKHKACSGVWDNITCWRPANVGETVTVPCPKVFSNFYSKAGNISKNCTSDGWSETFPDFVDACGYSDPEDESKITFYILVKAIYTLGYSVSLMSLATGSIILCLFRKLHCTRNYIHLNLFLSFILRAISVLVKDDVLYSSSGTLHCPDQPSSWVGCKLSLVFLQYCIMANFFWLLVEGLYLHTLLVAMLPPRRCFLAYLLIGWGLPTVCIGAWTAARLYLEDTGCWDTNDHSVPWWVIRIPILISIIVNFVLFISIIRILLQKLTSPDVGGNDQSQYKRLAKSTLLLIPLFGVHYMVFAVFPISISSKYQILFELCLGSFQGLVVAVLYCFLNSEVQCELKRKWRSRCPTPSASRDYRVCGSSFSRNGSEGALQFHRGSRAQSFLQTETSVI
Briefly: Antagonist activity at recombinant human N-terminal signal peptide/FLAG epitope-tagged Rluc8-fused VIPR2 expressed in HEK293 cells assessed as inhibition of VIP-induced human mVenus-beta-arrestin2 binding preincubated for 5 mins with luciferin, coelenterazine H followed by VIP addition measured after 5 mins by BRET assay. The class given is cell-based.

Assay [2] has as its target T2, Vasoactive intestinal polypeptide receptor 2 (Homo sapiens) (UniProt P41587).
T2 sequence (whole entry): T1 sequence (P41587 whole entry)
Put plainly: Antagonist activity at recombinant human N-terminal signal peptide/FLAG epitope-tagged VIPR2 expressed in HEK293 cells co-expressing CAMYEL assessed as inhibition of VIP-induced cAMP accumulation at 0.5 uM preincubated for 5 mins with luciferin, coelenterazine H followed by VIP addition measured after 5 mins by BRET assay relative to control. The class given is functional, cell-based. For orientation: Cyclic AMP is a second messenger, typically raised through Gs and lowered through Gi signalling.

The target in assay [3] is T2, Vasoactive intestinal polypeptide receptor 2 (Homo sapiens). Briefly: Antagonist activity at recombinant human N-terminal signal peptide/FLAG epitope-tagged VIPR2 expressed in HEK293 cells co-expressing CAMYEL assessed as inhibition of VIP-induced cAMP accumulation at 5 uM preincubated for 5 mins with luciferin, coelenterazine H followed by VIP addition measured after 5 mins by BRET assay relative to control. It counts as functional, cell-based.

For assay [4] the target is unchanged. Put plainly: Antagonist activity at recombinant human N-terminal signal peptide/FLAG epitope-tagged VIPR2 expressed in HEK293 cells co-expressing CAMYEL assessed as inhibition of VIP-induced cAMP accumulation at 1 uM preincubated for 5 mins with luciferin, coelenterazine H followed by VIP addition measured after 5 mins by BRET assay relative to control. The class given is functional, cell-based.

For assay [5] the target is unchanged. Put plainly: Antagonist activity at recombinant human N-terminal signal peptide/FLAG epitope-tagged Rluc8-fused VIPR2 expressed in HEK293 cells assessed as inhibition of VIP-induced human mVenus-beta-arrestin2 binding at 5 uM preincubated for 5 mins with luciferin, coelenterazine H followed by VIP addition measured after 5 mins by BRET assay relative to control. It counts as cell-based.

The target is the same in assay [6]. Briefly: Antagonist activity at recombinant human N-terminal signal peptide/FLAG epitope-tagged Rluc8-fused VIPR2 expressed in HEK293 cells assessed as inhibition of VIP-induced human mVenus-beta-arrestin2 binding at 1 uM preincubated for 5 mins with luciferin, coelenterazine H followed by VIP addition measured after 5 mins by BRET assay relative to control. It counts as cell-based. Background: In BRET a luciferase serves as donor, and the signal depends on an acceptor being close.

For assay [7] the target is unchanged. Briefly: Antagonist activity at recombinant human N-terminal signal peptide/FLAG epitope-tagged Rluc8-fused VIPR2 expressed in HEK293 cells assessed as inhibition of VIP-induced human mVenus-beta-arrestin2 binding at 0.5 uM preincubated for 5 mins with luciferin, coelenterazine H followed by VIP addition measured after 5 mins by BRET assay relative to control. It counts as cell-based.

For assay [8] the target is unchanged. Put plainly: Antagonist activity at recombinant human N-terminal signal peptide/FLAG epitope-tagged VIPR2 expressed in […] cells co-expressing CAMYEL assessed as inhibition of VIP-induced cAMP accumulation preincubated for 5 mins with luciferin, coelenterazine H followed by VIP addition measured after 5 mins by BRET assay. The class given is functional, cell-based.

The target of assay [9] is T1, Vasoactive intestinal polypeptide receptor 2. Briefly: Antagonist activity at human VIPR2 expressed in HEK293 cells assessed as inhibition of VIP-induced cAMP accumulation incubated for 30 mins by HTRF assay. It counts as functional, cell-based.
Assay [10] has the same target. Put plainly: Antagonist activity at human VIPR2 expressed in HEK293 cells assessed as inhibition of VIP-induced beta-arrestin 2 binding incubated for 2 hrs by beta-galactosidase assay. It counts as cell-based.

Turning to `O=C(N[C@H]1c2ccccc2C[C@H]1O)[C@H](Cc1ccccc1)C[C@H](O)CNS(=O)(=O)c1ccc2c(c1)OCCO2`, in assay [1], the IC50 fell in the range of 0.206 to 33.7 µM.

Take `CCc1ccc(S(=O)(=O)NC[C@@H](O)C[C@@H](Cc2ccccc2)C(=O)N[C@H]2c3ccccc3C[C@H]2O)cc1`: the IC50 in assay [1] was in the range of 1.13 to 45.8 µM.

With `Cc1ccc(S(=O)(=O)NC[C@@H](O)C[C@@H](Cc2ccccc2)C(=O)N[C@H]2c3ccccc3C[C@H]2O)cc1`, the inhibition was 42.2% in assay [2]; 98.2% in assay [3]; 63.5% in assay [4]; 90% in [5]; 80.4% in assay [6]; 62.3 to 94.1% in [7]. The IC50 in [1] is 1.18 to 1.98 µM.

For `CCCCNC(=O)[C@@H](Cc1ccccc1)C[C@H](O)CNS(=O)(=O)c1ccc([N+](=O)[O-])cc1`, the inhibition in [2] is -1.5%; in [3] it was 6.2%; in [4] it was 0.6%; in assay [5] it was 20.7%; in [6], 20.4%; in assay [7], 13.4 to 26.8%. For the same molecule, the IC50 in assay [1] turned out to be 1800 µM.

Regarding `CC(=O)c1ccc(S(=O)(=O)NC[C@@H](O)C[C@@H](Cc2ccccc2)C(=O)N[C@H]2c3ccccc3C[C@H]2O)cc1`, the inhibition is 38.6% in assay [2]; 96% in assay [3]; 61.1% in assay [4]; 88.7% in [5]; 78% in [6]; 58.3 to 92.3% in assay [7]. In addition, the inhibition result in [8] is “Active”.

Take `CO[C@H]1Cc2ccccc2[C@@H]1NC(=O)[C@H](Cc1ccccc1)C[C@H](O)CNS(=O)(=O)c1ccc2c(c1)OCCO2`: in assay [7], the inhibition worked out at 28.1%. Besides, the IC50 in assay [1] amounted to 6 µM.

In the case of `CO[C@@H]1Cc2ccccc2[C@@H]1NC(=O)[C@H](Cc1ccccc1)C[C@H](O)CNS(=O)(=O)c1ccc(C(C)=O)cc1`, the inhibition in assay [7] turned out to be 76.2%. Also, in [1], the IC50 was found to be 5 µM.

Regarding `O=C(N[C@H]1c2ccccc2C[C@H]1O)[C@H](Cc1ccccc1)C[C@H](O)CNS(=O)(=O)c1ccc(Cl)cc1`, in assay [1], the IC50 was 0.28 to 2.02 µM.

On to `O=C(NCc1ccccc1)c1ccc(S(=O)(=O)NC[C@@H](O)C[C@@H](Cc2ccccc2)C(=O)N[C@H]2c3ccccc3C[C@H]2O)cc1`, for which the inhibition in [2] was 25%; in assay [3] it was 90.5%; in [4] it was 32.3%; in assay [5], -7.7%; in assay [6], -2%; in [7], 4.8 to 41.4%.

As for `O=C(NN1CCCCC1)[C@H](Cc1ccccc1)C[C@H](O)CNS(=O)(=O)c1ccc([N+](=O)[O-])cc1`, the inhibition in assay [2] was 6.3%; in [3], 4.4%; in [4], 7.1%; in assay [5], 6.5%; in assay [6], 4.4%; in [7] it was -6.4 to 5.45%.

For the molecule `O=C(NC[C@@H](O)C[C@@H](Cc1ccccc1)C(=O)N[C@H]1c2ccccc2C[C@H]1O)c1c(Cl)cc(Cl)cc1Cl`, the inhibition in [2] was 17.6%; in assay [3], 12.3%; in [4], 14.8%; in assay [5], 31.5%; in assay [6] it was 25.3%; in assay [7], 21.9 to 23.9%.

Turning to `O=C(N[C@H]1c2ccccc2C[C@H]1O)[C@H](Cc1ccccc1)C[C@H](O)CNS(=O)(=O)c1ccc([N+](=O)[O-])cc1`, the inhibition in [2] is 38.7 to 74.3%; in assay [3], 97.8 to 100%; in [4], 70.9 to 86.1%; in assay [5], 29.3 to 92%; in assay [6], -2.6 to 74.6%; in assay [7] it was 2.6 to 84.5%. The IC50 came out at 3.8 µM in assay [9] and 2.3 µM in assay [10].

Consider `C#CCNC(=O)[C@H](Cc1ccccc1)C[C@H](O)CNS(=O)(=O)c1ccc([N+](=O)[O-])cc1`, for which the inhibition in [2] is 5.4%; in assay [3], 7.3%; in assay [4], 7.8%; in [5] it was -0.2%; in assay [6], 7.2%; in assay [7], 3.55 to 9.4%.

Consider `CO[C@@H]1Cc2ccccc2[C@@H]1NC(=O)[C@H](Cc1ccccc1)C[C@H](O)CNS(=O)(=O)c1ccc(Cl)cc1`, for which the inhibition in assay [7] amounted to 13.3%. For the same molecule, the IC50 in assay [1] was 4 µM.

`O=C([C@H](Cc1ccccc1)C[C@H](O)CNS(=O)(=O)c1ccc([N+](=O)[O-])cc1)N1CCOCC1`: the inhibition in assay [2] was -3.8%; in assay [3], 2.4%; in [4], -1.6%; in [5], -1.2%; in assay [6], 8.9%; in assay [7] it was -4.3 to 0.6%.

The record behind these values is ChEMBL document CHEMBL3879914, “Inhibitors of central nervous system vasoactive inhibitory peptide receptor 2” (2014).
